From patent US20150105252A1, “SUBSTITUTED PYRAZOLES AS HERBICIDES” (E I DU PONT DE NEMOURS AND COMPANY, priority 2013, published 2015)

Legend:
foxtail, green = experiment: Test D postemergence; type: in vivo, Setaria viridis; details: scale 0 to 100
Method in brief: (§1)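 Scores of 0 (no effect) to 100 (complete control) come from visual comparison with untreated plants 14–21 days after spraying. Applications were made pre-emergence to silt loam or post-emergence to plants 2–18 cm tall.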

field poppy = experiment: Test D postemergence; type: in vivo, Papaver rhoeas; details: scale 0 to 100
Method in brief: as §1

bluegrass [1] = experiment: Test D preemergence; type: in vivo, Poa annua; details: scale 0 to 100
Method in brief: as §1

bluegrass [2] = experiment: Test D postemergence; type: in vivo, Poa annua; details: scale 0 to 100
Method in brief: as §1

crabgrass, Brazil = experiment: Test F preemergence; type: in vivo, Digitaria horizontalis
Method in brief: (§2)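 Visual rating 0–100 vs untreated controls (0 = no effect, 100 = complete control) after 14–21 d greenhouse. Pre: seeds in silt loam soil. Post: plants 2–18 cm, 1–4 leaf. Formulation: non-phytotoxic solvent mix + surfactant.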

green foxtail = experiment: Test F preemergence; type: in vivo, Setaria viridis
Excerpt: Seeds of plant species selected from corn (Zea mays), soybean (Glycine max), velvetleaf (Abutilon theophrasti), lambsquarters (Chenopodium album), wild poinsettia (Euphorbia heterophylla), pigweed, palmer (palmer pigweed, Amaranthus palmeri), common waterhemp (Amaranthus rudis), surinam grass (Brachiaria decumbens), large crabgrass (Digitaria sanguinalis), crabgrass, Brazil (Brazilian crabgrass, Digitaria horizontalis), fall panicum (Panicum dichotomiflorum), giant foxtail (Setaria faberii), green foxtail (Setaria viridis), goosegrass (Eleusine indica), johnsongrass (Sorghum halepense), common ragweed (Ambrosia elation), barnyardgrass (Echinochloa crus-galli), southern sandbur (Cenchrus echinatus), arrowleaf sida (Sida rhombifolia), Italian ryegrass (Lolium multiflorum), dayflower, VA (Virginia (VA) dayflower, Commelina virginica), field bindweed (Convolvulus arvensis), cocklebur (common cocklebur, Xanthium strumarium), morningglory (Ipomoea coccinea), nightshade (eastern black nightshade, Solanum ptycanthum), kochia (Kochia scoparia), yellow nutsedge (Cyperus esculentus), and hairy beggarticks (Bidens pilosa), were planted into a silt loam soil and treated preemergence with test chemicals formulated in a non-phytotoxic solvent mixture which included a surfactant.
At the same time, plants from these crop and weed species and also horseweed (Canada horseweed, Conyza canadensis), smartweed (ladysthumb smartweed, Polygonum persicaria), waterhemp_RES1, (ALS & Triazine resistant common waterhemp, Amaranthus rudis), and waterhemp_RES2, (ALS & HPPD resistant common waterhemp, Amaranthus rudis) were treated with postemergence applications of test chemicals formulated in the same manner. Plants ranged in height from 2 to 18 cm for postemergence treatments (1- to 4-leaf stage). Treated plants and controls were maintained in a greenhouse for 14 to 21 days, after which time all species were compared to controls and visually evaluated. Plant response ratings, summarized in Table F, are based on a scale of 0 to 100 where 0 is no effect and 100 is complete control. A dash (-) response means no test result.

hairy beggarticks = experiment: Test F preemergence; type: in vivo, Bidens pilosa
Method in brief: as §2

wheat, spring = experiment: Test D postemergence; type: in vivo, Triticum aestivum; details: scale 0 to 100
Method in brief: as §1

wheat, winter = experiment: Test D postemergence; type: in vivo, Triticum aestivum; details: scale 0 to 100
Method in brief: as §1

speedwell = experiment: Test D postemergence; type: in vivo, Veronica persica; details: scale 0 to 100
Method in brief: as §1

field violet = experiment: Test D postemergence; type: in vivo, Viola arvensis; details: scale 0 to 100
Method in brief: as §1

chickweed = experiment: Test D preemergence; type: in vivo, Stellaria media; details: scale 0 to 100
Method in brief: as §1

oat, wild = experiment: Test D postemergence; type: in vivo, Avena fatua; details: scale 0 to 100
Method in brief: as §1

wild poinsettia = experiment: Test F preemergence; type: in vivo, Euphorbia heterophylla
Method in brief: as §2

[3] = Preemergence, 31 g ai/ha, scale 0 to 100
[4] = Preemergence, 62 g ai/ha, scale 0 to 100
[5] = Preemergence, 125 g ai/ha, scale 0 to 100
[6] = preemergence, 8 g ai/ha, scale 0 to 100, 100 is complete control
[7] = preemergence, 16 g ai/ha, scale 0 to 100, 100 is complete control

Structure (SMILES): CCc1cc(C(=O)NCC(F)(F)F)nn1Cc1ccnc(C(F)(F)F)c1 [Compound 78, 5-ethyl-N-(2,2,2-trifluoroethyl)-1-[[(2-trifluoromethyl)-4-pyridinyl]methyl]-1H-pyrazole-3-carboxamide]
- Foxtail, Green plant response rating (foxtail, green; Postemergence, 31 g ai/ha): 25
- Foxtail, Green plant response rating (foxtail, green; Postemergence, 125 g ai/ha): 70
- Foxtail, Green plant response rating (foxtail, green; Postemergence, 250 g ai/ha): 80
- Foxtail, Green plant response rating (foxtail, green; postemergence, 62 g ai/ha): 60
- Field Poppy plant response rating (field poppy; Postemergence, 31 g ai/ha): 55
- Field Poppy plant response rating (field poppy; Postemergence, 125 g ai/ha): 70
- Field Poppy plant response rating (field poppy; Postemergence, 250 g ai/ha): 85
- Field Poppy plant response rating (field poppy; postemergence, 62 g ai/ha): 65
- Plant response rating, Bluegrass (bluegrass [1]; 31 g ai/ha): 50
- Plant response rating, Bluegrass (bluegrass [1]; 62 g ai/ha): 80
- Plant response rating, Bluegrass (bluegrass [1]; 125 g ai/ha): 95
- Plant response rating, Bluegrass (bluegrass [1]; 250 g ai/ha): 100
- Bluegrass plant response rating (bluegrass [2]; Postemergence, 31 g ai/ha): 10
- Bluegrass plant response rating (bluegrass [2]; Postemergence, 125 g ai/ha): 15
- Bluegrass plant response rating (bluegrass [2]; Postemergence, 250 g ai/ha): 30
- Bluegrass plant response rating (bluegrass [2]; postemergence, 62 g ai/ha): 10
- Plant response rating, Crabgrass, Brazil (crabgrass, Brazil; [3]): 100
- Plant response rating, Crabgrass, Brazil (crabgrass, Brazil; [4]): 100
- Plant response rating, Crabgrass, Brazil (crabgrass, Brazil; [5]): 100
- Plant response rating, Crabgrass, Brazil (crabgrass, Brazil; [6]): 30
- Plant response rating, Crabgrass, Brazil (crabgrass, Brazil; [7]): 70
- Plant response rating, Green Foxtail (green foxtail; [3]): 60
- Plant response rating, Green Foxtail (green foxtail; [4]): 100
- Plant response rating, Green Foxtail (green foxtail; [5]): 100
- Plant response rating, Green Foxtail (green foxtail; [6]): 10
- Plant response rating, Green Foxtail (green foxtail; [7]): 60
- Plant response rating, Hairy Beggarticks (hairy beggarticks; [3]): 25
- Plant response rating, Hairy Beggarticks (hairy beggarticks; [4]): 35
- Plant response rating, Hairy Beggarticks (hairy beggarticks; [5]): 80
- Plant response rating, Hairy Beggarticks (hairy beggarticks; [6]): 0
- Plant response rating, Hairy Beggarticks (hairy beggarticks; [7]): 20
- Wheat, Spring plant response rating (wheat, spring; Postemergence, 31 g ai/ha): 0
- Wheat, Spring plant response rating (wheat, spring; Postemergence, 125 g ai/ha): 15
- Wheat, Spring plant response rating (wheat, spring; Postemergence, 250 g ai/ha): 25
- Wheat, Spring plant response rating (wheat, spring; postemergence, 62 g ai/ha): 5
- Wheat, Winter plant response rating (wheat, winter; Postemergence, 31 g ai/ha): 10
- Wheat, Winter plant response rating (wheat, winter; Postemergence, 125 g ai/ha): 25
- Wheat, Winter plant response rating (wheat, winter; Postemergence, 250 g ai/ha): 55
- Wheat, Winter plant response rating (wheat, winter; postemergence, 62 g ai/ha): 15
- Speedwell plant response rating (speedwell; Postemergence, 31 g ai/ha): 45
- Speedwell plant response rating (speedwell; Postemergence, 125 g ai/ha): 80
- Speedwell plant response rating (speedwell; Postemergence, 250 g ai/ha): 90
- Speedwell plant response rating (speedwell; postemergence, 62 g ai/ha): 60
- Field Violet plant response rating (field violet; Postemergence, 31 g ai/ha): 30
- Field Violet plant response rating (field violet; Postemergence, 125 g ai/ha): 60
- Field Violet plant response rating (field violet; Postemergence, 250 g ai/ha): 65
- Field Violet plant response rating (field violet; postemergence, 62 g ai/ha): 40
- Plant response rating, Chickweed (chickweed; 31 g ai/ha): 100
- Plant response rating, Chickweed (chickweed; 62 g ai/ha): 100
- Plant response rating, Chickweed (chickweed; 125 g ai/ha): 100
- Plant response rating, Chickweed (chickweed; 250 g ai/ha): 100
- Oat, Wild plant response rating (oat, wild; Postemergence, 31 g ai/ha): 15
- Oat, Wild plant response rating (oat, wild; Postemergence, 125 g ai/ha): 25
- Oat, Wild plant response rating (oat, wild; Postemergence, 250 g ai/ha): 40
- Oat, Wild plant response rating (oat, wild; postemergence, 62 g ai/ha): 20
- Plant response rating, Wild Poinsettia (wild poinsettia; [3]): 50
- Plant response rating, Wild Poinsettia (wild poinsettia; [4]): 65
- Plant response rating, Wild Poinsettia (wild poinsettia; [5]): 98
- Plant response rating, Wild Poinsettia (wild poinsettia; [6]): 0
- Plant response rating, Wild Poinsettia (wild poinsettia; [7]): 0

Structure (SMILES): CCCc1cc(C(=O)NCC(F)(F)F)nn1Cc1ccnc(C(F)(F)F)c1 [Compound 105]
- Foxtail, Green plant response rating (foxtail, green; Postemergence, 31 g ai/ha): 10
- Foxtail, Green plant response rating (foxtail, green; Postemergence, 125 g ai/ha): 70
- Foxtail, Green plant response rating (foxtail, green; Postemergence, 250 g ai/ha): 80
- Foxtail, Green plant response rating (foxtail, green; postemergence, 62 g ai/ha): 65
- Field Poppy plant response rating (field poppy; Postemergence, 31 g ai/ha): 65
- Field Poppy plant response rating (field poppy; Postemergence, 125 g ai/ha): 80
- Field Poppy plant response rating (field poppy; Postemergence, 250 g ai/ha): 95
- Field Poppy plant response rating (field poppy; postemergence, 62 g ai/ha): 80
- Plant response rating, Bluegrass (bluegrass [1]; 31 g ai/ha): 55
- Plant response rating, Bluegrass (bluegrass [1]; 62 g ai/ha): 80
- Plant response rating, Bluegrass (bluegrass [1]; 125 g ai/ha): 100
- Plant response rating, Bluegrass (bluegrass [1]; 250 g ai/ha): 100
- Bluegrass plant response rating (bluegrass [2]; Postemergence, 31 g ai/ha): 15
- Bluegrass plant response rating (bluegrass [2]; Postemergence, 125 g ai/ha): 40
- Bluegrass plant response rating (bluegrass [2]; Postemergence, 250 g ai/ha): 70
- Bluegrass plant response rating (bluegrass [2]; postemergence, 62 g ai/ha): 15
- Plant response rating, Crabgrass, Brazil (crabgrass, Brazil; [3]): 98
- Plant response rating, Crabgrass, Brazil (crabgrass, Brazil; [4]): 100
- Plant response rating, Crabgrass, Brazil (crabgrass, Brazil; [5]): 100
- Plant response rating, Crabgrass, Brazil (crabgrass, Brazil; [6]): 5
- Plant response rating, Crabgrass, Brazil (crabgrass, Brazil; [7]): 40
- Plant response rating, Green Foxtail (green foxtail; [3]): 75
- Plant response rating, Green Foxtail (green foxtail; [4]): 100
- Plant response rating, Green Foxtail (green foxtail; [5]): 100
- Plant response rating, Green Foxtail (green foxtail; [6]): 0
- Plant response rating, Green Foxtail (green foxtail; [7]): 25
- Plant response rating, Hairy Beggarticks (hairy beggarticks; [3]): 0
- Plant response rating, Hairy Beggarticks (hairy beggarticks; [4]): 20
- Plant response rating, Hairy Beggarticks (hairy beggarticks; [5]): 40
- Plant response rating, Hairy Beggarticks (hairy beggarticks; [6]): 0
- Plant response rating, Hairy Beggarticks (hairy beggarticks; [7]): 0
- Wheat, Spring plant response rating (wheat, spring; Postemergence, 31 g ai/ha): 5
- Wheat, Spring plant response rating (wheat, spring; Postemergence, 125 g ai/ha): 20
- Wheat, Spring plant response rating (wheat, spring; Postemergence, 250 g ai/ha): 40
- Wheat, Spring plant response rating (wheat, spring; postemergence, 62 g ai/ha): 10
- Wheat, Winter plant response rating (wheat, winter; Postemergence, 31 g ai/ha): 10
- Wheat, Winter plant response rating (wheat, winter; Postemergence, 125 g ai/ha): 40
- Wheat, Winter plant response rating (wheat, winter; Postemergence, 250 g ai/ha): 70
- Wheat, Winter plant response rating (wheat, winter; postemergence, 62 g ai/ha): 15
- Speedwell plant response rating (speedwell; Postemergence, 31 g ai/ha): 60
- Speedwell plant response rating (speedwell; Postemergence, 125 g ai/ha): 70
- Speedwell plant response rating (speedwell; Postemergence, 250 g ai/ha): 95
- Speedwell plant response rating (speedwell; postemergence, 62 g ai/ha): 80
- Field Violet plant response rating (field violet; Postemergence, 31 g ai/ha): 40
- Field Violet plant response rating (field violet; Postemergence, 125 g ai/ha): 90
- Field Violet plant response rating (field violet; Postemergence, 250 g ai/ha): 100
- Field Violet plant response rating (field violet; postemergence, 62 g ai/ha): 75
- Plant response rating, Chickweed (chickweed; 31 g ai/ha): 95
- Plant response rating, Chickweed (chickweed; 62 g ai/ha): 100
- Plant response rating, Chickweed (chickweed; 125 g ai/ha): 100
- Plant response rating, Chickweed (chickweed; 250 g ai/ha): 100
- Oat, Wild plant response rating (oat, wild; Postemergence, 31 g ai/ha): 15
- Oat, Wild plant response rating (oat, wild; Postemergence, 125 g ai/ha): 25
- Oat, Wild plant response rating (oat, wild; Postemergence, 250 g ai/ha): 50
- Oat, Wild plant response rating (oat, wild; postemergence, 62 g ai/ha): 20
- Plant response rating, Wild Poinsettia (wild poinsettia; [3]): 5
- Plant response rating, Wild Poinsettia (wild poinsettia; [4]): 60
- Plant response rating, Wild Poinsettia (wild poinsettia; [5]): 95
- Plant response rating, Wild Poinsettia (wild poinsettia; [6]): 0
- Plant response rating, Wild Poinsettia (wild poinsettia; [7]): 0
